Laboratory results from ChEMBL document CHEMBL4715789, “Identification of a Potential Antimalarial Drug Candidate from a Series of 2-Aminopyrazines by Optimization of Aqueous Solubility and Potency across the Parasite Life Cycle” (J Med Chem, 2016).
Converted amounts (≈) assume the structure as drawn.

Legend:
Plasmodium berghei [1] = assay: Antiplasmodial activity against Plasmodium berghei ANKA infected in NMRI mouse model assessed as mean survival days at 30 mg/kg, po qd for 4 consecutive days; format: functional; settings: time 4 day
[2] = Selectivity index, ratio of IC50 for cytotoxicity against CHO cells by MTT assay to IC50 for antiplasmodial activity against multidrug-sensitive Plasmodium falciparum NF54 infected in human erythrocytes; format: toxicity, cell-based; settings: Chinese hamster, read-out: Ratio IC50
[3] = target: Voltage-gated inwardly rectifying potassium channel KCNH2 (Homo sapiens, UniProt Q12809); assay: Inhibition of human ERG by IonWorks patch clamp electrophysiology method
Chain of Voltage-gated inwardly rectifying potassium channel KCNH2 (Q12809 whole entry): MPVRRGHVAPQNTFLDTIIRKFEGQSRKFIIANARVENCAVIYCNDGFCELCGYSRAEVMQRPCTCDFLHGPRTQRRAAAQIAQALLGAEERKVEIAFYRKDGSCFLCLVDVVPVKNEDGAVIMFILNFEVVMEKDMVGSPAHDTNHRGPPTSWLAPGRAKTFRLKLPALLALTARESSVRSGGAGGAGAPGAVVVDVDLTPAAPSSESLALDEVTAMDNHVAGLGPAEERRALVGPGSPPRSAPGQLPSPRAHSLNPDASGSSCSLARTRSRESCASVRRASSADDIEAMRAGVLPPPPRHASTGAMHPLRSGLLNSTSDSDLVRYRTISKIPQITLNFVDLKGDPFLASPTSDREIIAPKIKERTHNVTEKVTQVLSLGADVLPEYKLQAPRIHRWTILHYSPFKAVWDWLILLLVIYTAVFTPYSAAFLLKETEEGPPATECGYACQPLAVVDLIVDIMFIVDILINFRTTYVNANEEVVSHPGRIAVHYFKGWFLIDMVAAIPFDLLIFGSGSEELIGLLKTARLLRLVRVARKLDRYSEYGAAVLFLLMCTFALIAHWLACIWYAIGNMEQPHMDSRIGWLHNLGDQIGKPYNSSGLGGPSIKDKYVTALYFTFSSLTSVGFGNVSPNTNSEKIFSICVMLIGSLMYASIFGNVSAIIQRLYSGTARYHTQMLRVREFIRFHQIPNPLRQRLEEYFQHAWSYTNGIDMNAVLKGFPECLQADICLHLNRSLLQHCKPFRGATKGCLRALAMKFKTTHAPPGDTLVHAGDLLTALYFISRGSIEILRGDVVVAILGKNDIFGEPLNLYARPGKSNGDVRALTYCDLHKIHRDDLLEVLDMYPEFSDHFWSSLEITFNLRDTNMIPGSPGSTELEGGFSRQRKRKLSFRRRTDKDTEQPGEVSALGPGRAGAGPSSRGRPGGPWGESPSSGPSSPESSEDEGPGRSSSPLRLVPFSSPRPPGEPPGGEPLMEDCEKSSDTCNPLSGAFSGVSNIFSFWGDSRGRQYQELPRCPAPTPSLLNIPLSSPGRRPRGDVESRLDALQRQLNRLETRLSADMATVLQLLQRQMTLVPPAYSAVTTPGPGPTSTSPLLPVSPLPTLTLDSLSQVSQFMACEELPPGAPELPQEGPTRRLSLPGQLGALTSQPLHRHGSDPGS

hERG (KCNH2) = assay: Selectivity ratio of IC50 for inhibition of human ERG by IonWorks patch clamp electrophysiology method to IC50 for antiplasmodial activity against multidrug-sensitive Plasmodium falciparum NF54 infected in human erythrocytes; format: toxicity, cell-based; settings: read-out: Ratio IC50
[4] = Aqueous solubility of compound in pH 2 0.01M HCl incubated for 2 hrs under shaking condition by shake-flask method based HPLC-DAD analysis; format: physicochemical
[5] = Aqueous solubility of compound in pH 6.5 PBS incubated for 2 hrs under shaking condition by shake-flask method based HPLC-DAD analysis; format: physicochemical
[6] = Metabolic stability in human liver microsomes assessed as compound remaining at 0.1 uM measured after 30 mins in presence of cofactor NADPH by LC-MS/MS analysis; format: ADME, Microsome; settings: read-out: Stabilty
[7] = Metabolic stability in rat liver microsomes assessed as compound remaining at 0.1 uM measured after 30 mins in presence of cofactor NADPH by LC-MS/MS analysis; format: ADME, Microsome; settings: read-out: Stabilty
[8] = Metabolic stability in mouse liver microsomes assessed as compound remaining at 0.1 uM measured after 30 mins in presence of cofactor NADPH by LC-MS/MS analysis; format: ADME, Microsome; settings: read-out: Stabilty
Plasmodium berghei [9] = assay: Antiplasmodial activity against Plasmodium berghei ANKA infected in NMRI mouse assessed as reduction in parasitemia at 10 mg/kg, po qd for 4 consecutive days measured at day 7 post infection by flow cytometry analysis; format: functional; set-up: scale not given: the % may be the effect or the level left; settings: time 4 day
Plasmodium berghei [10] = assay: Antiplasmodial activity against Plasmodium berghei ANKA infected in NMRI mouse assessed as reduction in parasitemia at 3 mg/kg, po qd for 4 consecutive days measured at day 7 post infection by flow cytometry analysis; format: functional; set-up: scale not given: the % may be the effect or the level left; settings: time 4 day
Plasmodium berghei [11] = assay: Antiplasmodial activity against Plasmodium berghei ANKA infected in NMRI mouse model assessed as mean survival days at 10 mg/kg, po qd for 4 consecutive day; format: functional; settings: time 4 day
Plasmodium berghei [12] = assay: Antiplasmodial activity against Plasmodium berghei ANKA infected in NMRI mouse model assessed as mean survival days at 3 mg/kg, po qd for 4 consecutive day; format: functional; settings: time 4 day
Plasmodium berghei [13] = assay: Antiplasmodial activity against Plasmodium berghei ANKA infected in NMRI mouse model assessed as reduction in parasitemia administered orally once a day for 4 consecutive days measured at day 7 post infection by flow cytometry analysis; format: functional; settings: po, 96 h, time 4 day
Plasmodium falciparum [14] = assay: Antiplasmodial activity against Plasmodium falciparum 3D70087/N9 infected in NOD-SCID IL2Rgamma null mouse assessed as reduction in parasitemia administered orally on day 3 to 6 post-infection and measured day 7 post infection by TER-119-PE and […] dye based flow cytometry; format: functional; settings: 3D70087/N9, po, 120 h, time 5 day
Plasmodium falciparum [15] = assay: Antimalarial activity against Plasmodium falciparum 3D70087/N9 infected in NOD-SCID IL2Rgamma null mouse assessed as blood AUC level require to show 90% reduction in parasitemia administered orally on day 3 to 6 post-infection and measured day 7 post infection; format: functional, organism-based; settings: time 5.0 day
[16] = AUC(app) in NMRI mouse plasma infected with Plasmodium berghei ANKA at 3 mg/kg, po qd for 4 consecutive days and measured post last dose; format: ADME, organism-based; settings: time 4 day
[17] = Cmax(app) in NMRI mouse plasma infected with Plasmodium berghei ANKA at 3 mg/kg, po qd for 4 consecutive days and measured post last dose; format: ADME, organism-based; settings: time 4 day
[18] = Apparent average plasma concentration in NMRI mouse plasma infected with Plasmodium berghei ANKA at 3 mg/kg, po qd for 4 consecutive days and measured post last dose; format: ADME, organism-based; settings: in vivo, 96 h, time 4 day
[19] = Half-life in Sprague-dawley rat at 20 mg/kg, po by LC-MS/MS analysis; format: ADME, organism-based; settings: in vivo
[20] = Half-life in Sprague-dawley rat at 5 mg/kg, iv by LC-MS/MS analysis; format: ADME, organism-based; settings: in vivo
[21] = Clearance in Sprague-dawley rat at 5 mg/kg, iv by LC-MS/MS analysis; format: ADME, organism-based; settings: in vivo
[22] = Volume of distribution in Sprague-dawley rat at 5 mg/kg, iv by LC-MS/MS analysis; format: ADME, organism-based; settings: in vivo
[23] = Oral bioavailability in Sprague-dawley rat at 20 mg/kg by LC-MS/MS analysis; format: ADME, organism-based; settings: in vivo
Plasmodium berghei [24] = assay: Antiplasmodial activity against luciferase expressing Plasmodium berghei sporozoites infected in human HepG2 cells preincubated with compound for 18 hrs followed by plasmodium infection measured after 48 hrs by bioluminescence assay; format: functional, organism-based
Plasmodium falciparum [25] = assay: Antiplasmodial activity against late stage (IV/V) Plasmodium falciparum NF54 gametocytes incubated for 48 hrs by luciferase reporter gene assay; format: functional, organism-based; settings: NF54, 48 h
Plasmodium falciparum [26] = assay: Antiplasmodial activity against early stage (II/III) Plasmodium falciparum NF54 gametocytes incubated for 48 hrs by luciferase reporter gene assay; format: functional, organism-based; settings: NF54, 48 h
Plasmodium falciparum [27] = assay: microbe, parasite or virus in culture; settings: NF54, Erythrocyte
Description: Antiplasmodial activity against multidrug-sensitive Plasmodium falciparum NF54 infected in human erythrocytes assessed as reduction in [3H]hypoxanthine incorporation preincubated for 48 hrs followed by [3H]hypoxanthine addition and measured after 24 hrs by liquid scintillation counting method

Plasmodium falciparum [28] = assay: microbe, parasite or virus in culture; settings: K1, Erythrocyte
Description: Antiplasmodial activity against multidrug-resistant Plasmodium falciparum K1 infected in erythrocytes assessed as reduction in [3H]hypoxanthine incorporation preincubated for 48 hrs followed by [3H]hypoxanthine addition and measured after 24 hrs by liquid scintillation counting method

[29] = Oral bioavailability in Sprague-dawley rat at 15 mg/kg by LC-MS/MS analysis; format: ADME, organism-based; settings: in vivo
[30] = Half-life in Sprague-dawley rat at 10 mg/kg, po by LC-MS/MS analysis; format: ADME, organism-based; settings: in vivo
[31] = Half-life in Sprague-dawley rat at 3 mg/kg, iv by LC-MS/MS analysis; format: ADME, organism-based; settings: in vivo
[32] = Clearance in Sprague-dawley rat at 3 mg/kg, iv by LC-MS/MS analysis; format: ADME, organism-based; settings: in vivo
[33] = Volume of distribution in Sprague-dawley rat at 3 mg/kg, iv by LC-MS/MS analysis; format: ADME, organism-based; settings: in vivo
[34] = Oral bioavailability in Sprague-dawley rat at 10 mg/kg by LC-MS/MS analysis; format: ADME, organism-based; settings: in vivo

Compound | selectivity ratio [2] | IC50 [3] [nM] | selectivity ratio (hERG (KCNH2)) | solubility thermodynamic at 2 h [4] [µM] | solubility thermodynamic at 2 h [5] [µM] | remaining at 0.5 h, 0.1 µM [6] [%] | remaining at 0.5 h, 0.1 µM [7] [%] | remaining at 0.5 h, 0.1 µM [8] [%] | Activity (Plasmodium berghei [9]) [%] | Activity (Plasmodium berghei [10]) [%] | MSD (Plasmodium berghei [11]) [days] | MSD (Plasmodium berghei [12]) [days] | ED90 (Plasmodium falciparum [14]) [mg/kg] | AUC (Plasmodium falciparum [15]) [ng·h/mL] | AUC at 96 h [16] [µM·h] | IC50 (Plasmodium berghei [24]) [nM] | IC50 (Plasmodium falciparum [25]) [nM] | IC50 (Plasmodium falciparum [26]) [nM] | IC50 (Plasmodium falciparum [27]) [nM] | IC50 (Plasmodium falciparum [28]) [nM] | also measured
O[C@@H](c1cc(C(F)(F)F)nc2c(C(F)(F)F)cccc12)[C@H]1CCCCN1 [(S,R)-MEFLOQUINE] | – | – | – | – | – | – | – | – | – | – | – | – | – | – | – | – | – | – | – | – | MSD (Plasmodium berghei [1]): 29 days
Nc1ncc(-c2ccc(C(=O)N3CCNCC3)cc2)nc1-c1ccc(C(F)(F)F)cc1 | > 1800 | 10000 | 1900 | 192 (≈ 82.1 µg/mL) | 158 (≈ 67.5 µg/mL) | > 90 | > 90 | > 90 | >99.9 | >99.9 | >30 | 10 | 0.25 | < 65 | 5.4 | 0.92 | 66 | 134 | 5.4 | 5.2 | ED90 (Plasmodium berghei [13]): 1 mg/kg; Cmax [17]: 400 nM; Cave [18]: 200 nM; half-life [19]: 5.3 h; half-life [20]: 7.8 h; clearance [21]: 10.3 mL/min/kg; Vd [22]: 5.5 L/kg; bioavailability [23]: 98%
Nc1ncc(-c2ccc(C(=O)O)cc2)nc1-c1ccc(C(F)(F)F)cc1 | > 1800 | > 33000 | > 1000 | < 5 | 95 (≈ 34.1 µg/mL) | > 90 | > 90 | > 90 | 99.9 | 99.9 | >30 | 14 | < 0.1 | 200 | 79.7 | 51 | 729 | 649 | 33 | 32 | ED90 (Plasmodium berghei [13]): 0.56 mg/kg; Cmax [17]: 5000 nM; Cave [18]: 3500 nM; bioavailability [29]: 94%
C[C@H]1[C@H](OC(=O)CCC(=O)O)O[C@@H]2O[C@@]3(C)CC[C@H]4[C@H](C)CC[C@@H]1[C@@]24OO3 [ARTESUNATE] | – | – | – | – | – | – | – | – | – | – | – | – | – | – | – | – | – | – | 4 | 3 | MSD (Plasmodium berghei [1]): 10 days
Nc1ncc(-c2ccc(C(=O)N3CCC(O)CC3)cc2)nc1-c1ccc(C(F)(F)F)nc1 | – | > 33000 | > 868 | 200 (≈ 88.7 µg/mL) | 184 (≈ 81.6 µg/mL) | > 90 | > 90 | > 90 | 85 | 64 | 7 | 7 | – | – | – | – | – | – | 10 | 9 | –
NC(=O)c1ccc(-c2cnc(N)c(-c3ccc(C(F)(F)F)cc3)n2)cc1 | > 1800 | – | – | 80 (≈ 28.7 µg/mL) | < 5 | > 90 | > 90 | > 90 | – | – | >30 | 20 | < 0.1 | < 75 | 42.3 | – | 237 | 754 | 14 | 13 | ED90 (Plasmodium berghei [13]): 0.3 mg/kg; Cmax [17]: 4000 nM; Cave [18]: 1800 nM; half-life [19]: 7 h; bioavailability [23]: 25%
Nc1ncc(-c2ccc(C(=O)N3CC[C@@H](O)C3)cc2)nc1-c1ccc(C(F)(F)F)cc1 | > 1800 | > 33000 | > 1000 | 103 (≈ 44.1 µg/mL) | 90 (≈ 38.6 µg/mL) | > 90 | > 90 | > 90 | 100 | – | 26 | 8 | 0.14 | 60 | 33.2 | 14 | 137 | 323 | 22 | 20 | ED90 (Plasmodium berghei [13]): 1.1 mg/kg; Cmax [17]: 3290 nM; Cave [18]: 1930 nM; half-life [19]: 7.2 h; half-life [20]: 5.3 h; clearance [21]: 13.5 mL/min/kg; Vd [22]: 8.2 L/kg; bioavailability [23]: 71%
Nc1ncc(-c2ccc(C(=O)N3CCC(O)CC3)cc2)nc1-c1ccc(C(F)(F)F)cc1 | > 1800 | > 33000 | > 1000 | 119 (≈ 52.7 µg/mL) | 19 (≈ 8.41 µg/mL) | > 90 | > 90 | > 90 | 99.9 | – | 11 | 7 | 0.11 | 60 | – | 4.1 | 179 | 603 | 5.4 | 5 | half-life [30]: 5.4 h; half-life [31]: 8.1 h; clearance [32]: 7.1 mL/min/kg; Vd [33]: 5.1 L/kg; bioavailability [34]: 25%
Nc1ncc(-c2ccc(C(=O)O)cc2)nc1-c1ccc(C(F)(F)F)nc1 | > 1800 | – | – | 191 (≈ 68.8 µg/mL) | 178 (≈ 64.1 µg/mL) | > 90 | > 90 | > 90 | 99.8 | 93 | 10 | 7 | < 0.5 | < 440 | 30.8 | 528 | 845 | 168 | 19 | 26 | Cmax [17]: 2290 nM; Cave [18]: 1480 nM; half-life [19]: 3.9 h; bioavailability [23]: 38%
Nc1ncc(-c2ccc(C(=O)N3CC(O)C3)cc2)nc1-c1ccc(C(F)(F)F)cc1 | > 1800 | – | – | 110 (≈ 45.6 µg/mL) | 55 (≈ 22.8 µg/mL) | > 90 | > 90 | > 90 | 99.9 | 99.7 | >30 | 10 | 0.17 | 22 | – | 2.7 | 45 | 415 | 9.2 | 7 | half-life [19]: 5.2 h; half-life [20]: 3 h; clearance [21]: 22 mL/min/kg; Vd [22]: 5.7 L/kg; bioavailability [23]: 20%
